# Test results as given in ChEMBL document CHEMBL5046290, “Design, Synthesis, and Preclinical Profiling of GSK3739936 (BMS-986180), an Allosteric Inhibitor of HIV-1 Integrase with Broad-Spectrum Activity toward 124/125 Polymorphs” (J Med Chem, 2022).
# Experiments:
# [1] = Elimination half life in Cynomolgus monkey at 1 mg/kg, iv by LC-MS/MS analysis; type: ADME, organism-based, Macaca fascicularis; details: in vivo, read-out: beta t1/2 (converted)
# [2] = Tmax in CD-1 mouse at 5 mg/kg, po by LC-MS/MS analysis; type: ADME, organism-based; details: in vivo
# [3] = Cmax in Sprague-Dawley rat at 5 mg/kg, po by LC-MS/MS analysis; type: ADME, organism-based; set-up: route oral, dose 5 mg/kg; details: in vivo
# [4] = Metabolic stability in rat liver microsome assessed half life at 0.5 uM by LC-MS/MS analysis; type: ADME; details: liver microsomes
# [5] = Clearance in Beagle dog at 1 mg/kg, iv by LC-MS/MS analysis; type: ADME, organism-based, Canis lupus familiaris; details: in vivo
# [6] = Cmax in CD-1 mouse at 5 mg/kg, po by LC-MS/MS analysis; type: ADME, organism-based; set-up: route oral, dose 5 mg/kg; details: in vivo
# [7] = Tmax in Beagle dog at 2 mg/kg, po by LC-MS/MS analysis; type: ADME, organism-based, Canis lupus familiaris; details: in vivo
# [8] = Toxicity in rat at 500 mg/kg/day for one week; type: organism-based; details: in vivo
# Salmonella typhimurium [9] = assay: Mutagenicity in Salmonella Typhimurium using Aroclor 1254 induced rat liver S9 fraction by […] assay; type: toxicity, organism-based; details: salmonella enterica subsp. enterica serovar typhimurium
# [10] = Toxicity in rat assessed as histological changes in bone marrow at 500 mg/kg/day; type: organism-based; details: in vivo
# Cytochrome P450 2C19 = Cytochrome P450 2C19 (Homo sapiens, UniProt P33261); assay: Inhibition of human CYP2C19; type: ADME
# [11] = Plasma protein binding in rat; type: ADME, cell-free; details: read-out: PPB (converted)
# [12] = Bioavailability in Beagle dog at 2 mg/kg, po by LC-MS/MS analysis; type: ADME, organism-based, Canis lupus familiaris; details: in vivo
# [13] = system: Human immunodeficiency virus 1; assay: Antiviral activity against recombinant HIV1 A128T-resitant mutant […] infected in human MT-2 cells assessed as inhibition of virus growth in presence of fetal bovine serum by measuring luciferase activity after 5 days; type: functional, organism-based; details: Human immunodeficiency virus 1, MT2, 120 h
# [14] = Toxicity in rat assessed as distended stomach at 500 mg/kg/day; type: organism-based; details: in vivo
# [15] = Toxicity in rat assessed as histological changes in thymus at 500 mg/kg/day; type: organism-based; details: in vivo
# [16] = Toxicity in rat assessed as histological changes in stomach at 500 mg/kg/day; type: organism-based; details: in vivo
# [17] = system: Human immunodeficiency virus 1; assay: Antiviral activity against recombinant HIV1 NLRep-Rluc harbouring polymorphic NA infected in human MT-2 cells assessed as inhibition of virus growth in presence of fetal bovine serum by measuring luciferase activity after 5 days; type: functional, organism-based; details: Human immunodeficiency virus 1, NLRep, MT2, 120 h
# [18] = Oral bioavailability in cynomolgus monkey at 2 mg/kg by LC-MS/MS analysis; type: ADME, organism-based, Macaca fascicularis; details: in vivo
# [19] = Plasma protein binding in dog; type: ADME, cell-free, Canis lupus familiaris; details: read-out: PPB (converted)
# [20] = Plasma protein binding in human; type: ADME, cell-free; details: read-out: PPB (converted)
# [21] = system: Human immunodeficiency virus 1; assay: Antiviral activity against recombinant HIV1 NLRep-Rluc harbouring polymorphic AT infected in human MT-2 cells assessed as inhibition of virus growth in presence of fetal bovine serum by measuring luciferase activity after 5 days; type: functional, organism-based; details: Human immunodeficiency virus 1, NLRep, MT2, 120 h
# [22] = Cardiotoxicity in dog heart assessed as increase in heart rate at 300 mg/kg; type: toxicity, organism-based, Canis lupus familiaris; details: in vivo
# CYP [23] = assay: Half life in dog assessed as CYP mediated metabolism in presence of […] by phase I metabolic oxidation assay; type: ADME, Canis lupus familiaris
# CYP [24] = assay: Half life in rat assessed as CYP mediated metabolism in presence of […] by phase I metabolic oxidation assay; type: ADME
# [25] = Toxicity in rat assessed as vacuolation of kidney at 500 mg/kg/day; type: organism-based; details: in vivo
# Cytochrome P450 2C8 = molecular target: T1, Cytochrome P450 2C8 (Homo sapiens, UniProt P10632); assay: Inhibition of human CYP2C8; type: ADME
# T1 sequence (P10632 whole entry): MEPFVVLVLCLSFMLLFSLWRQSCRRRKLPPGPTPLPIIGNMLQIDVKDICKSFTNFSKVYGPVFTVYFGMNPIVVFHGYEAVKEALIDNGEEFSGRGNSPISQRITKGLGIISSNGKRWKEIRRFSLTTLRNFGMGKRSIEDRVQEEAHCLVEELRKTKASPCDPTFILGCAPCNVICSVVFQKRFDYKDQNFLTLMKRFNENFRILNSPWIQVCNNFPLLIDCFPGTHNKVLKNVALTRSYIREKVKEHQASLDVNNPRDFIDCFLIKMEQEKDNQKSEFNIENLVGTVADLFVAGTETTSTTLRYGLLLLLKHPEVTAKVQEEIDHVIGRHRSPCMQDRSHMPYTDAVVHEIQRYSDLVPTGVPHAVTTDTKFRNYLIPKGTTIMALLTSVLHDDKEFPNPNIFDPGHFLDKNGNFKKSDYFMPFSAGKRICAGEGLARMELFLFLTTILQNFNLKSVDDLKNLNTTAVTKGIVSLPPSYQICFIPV
# [26] = Stability in pH 4 for 2 weeks at 50 degC; type: physicochemical; details: buffer, pH 4, 336 h
# [27] = Volume of distribution at steady state in Sprague-Dawley rat at 1 mg/kg, iv by LC-MS/MS analysis; type: ADME, organism-based; details: in vivo, read-out: Vdss
# [28] = system: Human immunodeficiency virus 1; assay: Antiviral activity against recombinant HIV1 NLRep-Rluc harbouring polymorphic T124/T125 integrase infected in human MT-2 cells assessed as inhibition of virus growth in presence of fetal bovine serum by measuring luciferase activity after 5 days; type: functional, organism-based, MT2; details: Human immunodeficiency virus 1, NLRep, MT2, 120 h
# [29] = Toxicity in dog assessed as fecal change at upto 300 mg/kg, po administered as single dose; type: organism-based, Canis lupus familiaris; details: in vivo
# [30] = Elimination half life in Beagle dog at 1 mg/kg, iv by LC-MS/MS analysis; type: ADME, organism-based, Canis lupus familiaris; details: in vivo, read-out: beta t1/2 (converted)
# [31] = AUC in Sprague-Dawley rat at 5 mg/kg, po by LC-MS/MS analysis; type: ADME, organism-based; set-up: dose 5 mg/kg; details: in vivo
# CYP [32] = molecular target: CYP (Homo sapiens, UniProt P04798+P05177+P05181+P08684+P10632+P10635+P11509+P11712+P13584+P20813+P20815+P20853+P24462+P24903+P33260+P33261+P51589+P78329+P98187+Q02928+Q08477+Q16678+Q16696+Q5TCH4+Q6VVX0+Q7Z449+Q8TAV3+Q96SQ9+Q9HB55); assay: Half life in human assessed as CYP mediated metabolism in presence of […] by phase I metabolic oxidation assay; type: ADME, protein assay
# [33] = Oral bioavailability in CD-1 mouse at 5 mg/kg by LC-MS/MS analysis; type: ADME, organism-based; details: in vivo
# [34] = Cmax in cynomolgus monkey at 2 mg/kg, po by LC-MS/MS analysis; type: ADME, organism-based, Macaca fascicularis; set-up: route oral, dose 2 mg/kg; details: in vivo
# [35] = Displacement of [3H](S)-2-(tert-butoxy)-2-(2-methyl-4-(p-tolyl)quinolin-3-yl)acetic acid from LEDGF-binding site of recombinant T124/T125 polymorphic HIV1 integrase by LIDIA assay; set-up: species or system Human immunodeficiency virus 1
# [36] = Toxicity in rat assessed as lipidosis at 500 mg/kg/day; type: organism-based; details: in vivo
# [37] = Toxicity in rat at 50 to 500 mg/kg in cannulated jugular vein; type: organism-based; details: in vivo, iv, dose 50-500 mg/kg
# Cytochrome P450 2C9 = Cytochrome P450 2C9 (Homo sapiens, UniProt P11712); assay: Inhibition of human CYP2C9; type: ADME
# Salmonella typhimurium [38] = assay: Genotoxicity in Salmonella typhimurium TA102 by Ames test; type: toxicity, organism-based; details: salmonella enterica subsp. enterica serovar typhimurium
# Chain of Cytochrome P450 2C9 (P11712 whole entry): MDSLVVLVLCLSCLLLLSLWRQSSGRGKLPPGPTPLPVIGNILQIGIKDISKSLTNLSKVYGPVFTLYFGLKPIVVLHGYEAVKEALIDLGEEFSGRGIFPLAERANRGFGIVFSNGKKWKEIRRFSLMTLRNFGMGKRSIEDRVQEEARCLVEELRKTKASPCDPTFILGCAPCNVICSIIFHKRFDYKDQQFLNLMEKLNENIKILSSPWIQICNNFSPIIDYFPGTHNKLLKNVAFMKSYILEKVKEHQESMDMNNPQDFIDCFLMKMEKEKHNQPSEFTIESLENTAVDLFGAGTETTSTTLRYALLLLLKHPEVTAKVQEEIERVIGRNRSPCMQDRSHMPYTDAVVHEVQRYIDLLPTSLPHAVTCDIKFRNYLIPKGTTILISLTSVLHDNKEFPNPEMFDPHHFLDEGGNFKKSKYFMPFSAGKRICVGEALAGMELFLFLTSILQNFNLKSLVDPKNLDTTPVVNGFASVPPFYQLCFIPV
# Chain of Cytochrome P450 2C19 (P33261 whole entry): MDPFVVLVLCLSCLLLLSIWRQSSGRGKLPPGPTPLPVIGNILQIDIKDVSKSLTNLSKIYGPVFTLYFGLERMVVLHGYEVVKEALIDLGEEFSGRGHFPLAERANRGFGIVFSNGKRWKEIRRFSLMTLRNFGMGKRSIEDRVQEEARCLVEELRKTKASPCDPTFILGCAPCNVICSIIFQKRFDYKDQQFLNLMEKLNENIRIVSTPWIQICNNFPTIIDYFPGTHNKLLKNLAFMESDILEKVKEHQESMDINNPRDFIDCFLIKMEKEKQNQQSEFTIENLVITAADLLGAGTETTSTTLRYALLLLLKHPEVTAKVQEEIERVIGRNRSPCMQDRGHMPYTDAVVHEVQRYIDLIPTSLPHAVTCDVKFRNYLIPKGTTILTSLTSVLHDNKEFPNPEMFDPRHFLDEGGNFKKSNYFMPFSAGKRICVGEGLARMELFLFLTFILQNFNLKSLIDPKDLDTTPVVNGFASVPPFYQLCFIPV
compound,measurement,setting,value
Cc1nc(C)c([C@H](OC(C)(C)C)C(=O)O)c(N2CCC(C)(C)CC2)c1-c1ccc(OCCc2ccc(F)cc2)cc1,half-life,[1],2.4 h
same,Tmax,[2],5 h
same,Cmax,[3],2760 nM
same,half-life at 0.5 µM,[4],> 2 h
same,clearance,[5],2.9 mL/min/kg
same,Cmax,[6],2360 nM
same,Tmax,[7],2 h
same,Activity,[8],Toxic
same,Activity,Salmonella typhimurium [9],Non-Toxic
same,Activity,[10],Toxic
same,IC50,Cytochrome P450 2C19,≥ 24300 nM
same,fraction unbound,[11],0.19
same,bioavailability,[12],75%
same,EC50,[13],363 nM
same,Activity,[14],Toxic
same,Activity,[15],Toxic
same,Activity,[16],Toxic
same,EC50,[17],3.8 nM
same,bioavailability,[18],54%
same,fraction unbound,[19],0.13
same,fraction unbound,[20],0.2
same,EC50,[21],5.1 nM
same,Activity,[22],15%
same,half-life,CYP [23],> 2 h
same,half-life,CYP [24],> 2 h
same,Activity,[25],Toxic
same,IC50,Cytochrome P450 2C8,≥ 24300 nM
same,Stability,[26],Stable
same,Vd,[27],0.8 L/kg
same,EC50,[28],1.7 nM
same,Activity,[29],Toxic
same,half-life,[30],5.1 h
same,AUC,[31],14 µM·h
same,half-life,CYP [32],1.42 h
same,bioavailability,[33],89%
same,Cmax,[34],525 nM
same,IC50,[35],11.1 nM
same,Activity,[36],Toxic
same,Activity,[37],Non-Toxic
same,IC50,Cytochrome P450 2C9,≥ 24300 nM
same,Activity,Salmonella typhimurium [38],Non-Toxic
